Laboratory results: paper PMC12728570, “Sphingomyelin synthase inhibitors from edible mushrooms prevent overweight and improve vitamin D homeostasis in a mouse model of diet-induced obesity” (Frontiers in Nutrition, 2025)
Read-outs that look alike come from different tables or passages of the source.

Key:
[1] = tested on: T1, SMS2 (sphingomyelin synthase 2); assay: HPLC-fluorescence enzyme assay, ZS2 cell lysate; type: biochemical; details: Path 2: 5 μM C6-NBD-ceramide to NBD-SM; 5 μM C6-NBD-PC present; 37 °C, 30 min preincubation
T1 construct: gene SGMS2; stably expressed in SMS1/SMS2-deficient mouse embryonic fibroblasts (ZS2), cell lysate
Text: HPLC-fluorescence enzyme assay, ZS2 cell lysate on SMS2 (sphingomyelin synthase 2)

[2] = tested on: T2, SMS1 (sphingomyelin synthase 1); assay: HPLC-fluorescence enzyme assay, ZS2 cell lysate; type: biochemical; details: 37 °C, 30 min preincubation
T2 construct: gene SGMS1; stably expressed in SMS1/SMS2-deficient mouse embryonic fibroblasts (ZS2), cell lysate
Text: HPLC-fluorescence enzyme assay, ZS2 cell lysate on SMS1 (sphingomyelin synthase 1)

CC(C)=CCC/C(C)=C/CC/C(C)=C/Cc1c(O)cc(C)cc1O [grifolin]
IC50 [1]: 3 µM
IC50 ([2]; Path 2: 5 μM C6-NBD-ceramide to NBD-SM, 5 μM C6-NBD-PC present): 0.6 µM

CC(C)=CCC/C(C)=C/CC/C(C)=C/Cc1c(O)cc(C)c(C(=O)O)c1O [grifolic acid]
IC50 [1]: 2.5 µM
IC50 ([2]; read-out: IC50 (μM) / SMS1 / Path 1): 3 µM
